Reference: patent US20110201564A1, “SUBSTITUTED 7-SULFANYLMETHYL, 7-SULFINYLMETHYL AND 7-SULFONYLMETHYL INDOLES AND USE THEREOF” (BAYER SCHERING PHARMA AKTIENGESELLSCHAFT, priority 2008, published 2011)
Where two headings read alike, the source gives them in different places.

Assays:
[1] = target: T1, human mineralocorticoid receptor (MR) (Homo sapiens, UniProt P08235); test: Cellular in vitro assay, GAL4-MR chimera luciferase reporter in CHO K1 cells (inhibitory MR activity); format: cell-based; conditions: antagonism vs aldosterone; CHO K1 GAL4-MR LBD luciferase reporter
T1 construct: expressed in transfected cells; host or cells: CHO K1
T1 sequence (P08235 734-984 limits assumed): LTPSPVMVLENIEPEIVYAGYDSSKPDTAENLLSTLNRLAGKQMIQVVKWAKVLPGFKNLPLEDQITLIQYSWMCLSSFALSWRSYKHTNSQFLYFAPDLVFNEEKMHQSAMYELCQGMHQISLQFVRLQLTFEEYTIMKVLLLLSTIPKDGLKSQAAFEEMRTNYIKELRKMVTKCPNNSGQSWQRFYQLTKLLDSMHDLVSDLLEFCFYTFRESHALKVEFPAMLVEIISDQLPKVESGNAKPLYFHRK
Excerpt: (§1) 1. Cellular In Vitro Assay to Determine the Inhibitory MR Activity and MR Selectivity Compared with Other Steroid Hormone Receptors
(§2) Antagonists of the human mineralocorticoid receptor (MR) are identified, and the activity of the compounds described herein is quantified with the aid of a recombinant cell line. The cell is originally derived from a hamster ovary epithelial cell (Chinese Hamster Ovary, CHO K1, ATCC: American Type Culture Collection, VA 20108, USA).
(§3) An established chimera system in which the ligand-binding domains of human steroid hormone receptors are fused to the DNA-binding domain of the yeast transcription factor GAL4 is used in this CHO K1 cell line. The GAL4-steroid hormone receptor chimeras produced in this way are cotransfected and stably expressed with a reporter construct in the CHO cells.
(§4) To generate the GAL4-steroid hormone receptor chimeras, the GAL4 DNA-binding domain (amino acids 1-147) from the vector pFC2-dbd (from Stratagene) is cloned with the PCR-amplified ligand-binding domains of the mineralocorticoid receptor (MR, amino acids 734-985), of the progesterone receptor (PR, amino acids 680-933) and of the androgen receptor (AR, amino acids 667-919) into the vector pIRES2 (from Clontech). The reporter construct, which comprises five copies of the GAL4 binding site upstream of a thymidine kinase promoter, leads to expression of firefly luciferase (Photinus pyralis) after activation and binding of the GAL4-steroid hormone receptor chimeras by the respective specific agonists aldosterone (MR), dexamethasone (GR), progesterone (PR) and dihydrotestosterone (AR).
(§5) The MR, PR and AR cells are plated out in medium (Optimem, 2.5% FCS, 2 mM glutamine, 10 mM HEPES) in 96- (or 384- or 1536-)well microtiter plates on the day before the assay and are kept in a cell incubator (96% humidity, 5% v/v CO2, 37° C.). On the day of the assay, the substances to be tested are taken up in the abovementioned medium and added to the cells. About 10 to 30 minutes after addition of the test substances, the respective specific agonists of the steroid hormone receptors are added. After a further incubation time of 5 to 6 hours, the luciferase activity is measured with the aid of a video camera. The measured relative light units as a function of the substance concentration result in a sigmoidal stimulation curve. The IC50 values are calculated with the aid of the GraphPad PRISM computer program (Version 3.02).

[2] = target: T2, progesterone receptor (PR) (Homo sapiens, UniProt P06401); test: Cellular in vitro assay, GAL4-PR chimera luciferase reporter in CHO K1 cells (selectivity); format: cell-based; conditions: antagonism vs progesterone; CHO K1 GAL4-PR LBD luciferase reporter
T2 construct: of the progesterone receptor (PR, amino acids 680-933); expressed in transfected cells; host or cells: CHO K1
T2 sequence (P06401 680-933): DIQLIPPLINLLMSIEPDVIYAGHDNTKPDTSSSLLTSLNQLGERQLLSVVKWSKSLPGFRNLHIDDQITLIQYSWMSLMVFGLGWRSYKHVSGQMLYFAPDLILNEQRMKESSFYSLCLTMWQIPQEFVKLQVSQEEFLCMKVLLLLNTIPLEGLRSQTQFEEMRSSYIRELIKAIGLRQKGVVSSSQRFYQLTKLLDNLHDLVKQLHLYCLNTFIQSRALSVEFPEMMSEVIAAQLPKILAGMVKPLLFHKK
Excerpt: as §1, §2, §3, §4, §5

[3] = target: T3, androgen receptor (AR) (Homo sapiens, UniProt P10275); test: Cellular in vitro assay, GAL4-AR chimera luciferase reporter in CHO K1 cells (selectivity); format: cell-based; conditions: antagonism vs dihydrotestosterone; CHO K1 GAL4-AR LBD luciferase reporter
T3 construct: of the androgen receptor (AR, amino acids 667-919); expressed in transfected cells; host or cells: CHO K1
T3 sequence (P10275 668-920): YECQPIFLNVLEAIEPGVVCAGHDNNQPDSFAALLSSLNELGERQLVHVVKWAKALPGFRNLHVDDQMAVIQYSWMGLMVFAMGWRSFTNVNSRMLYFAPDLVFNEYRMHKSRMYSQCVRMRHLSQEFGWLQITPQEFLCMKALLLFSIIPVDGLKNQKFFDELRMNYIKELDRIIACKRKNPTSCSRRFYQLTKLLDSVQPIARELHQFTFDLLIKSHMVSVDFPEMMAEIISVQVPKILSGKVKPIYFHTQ
Excerpt: as §1, §2, §3, §4, §5

[4] = target: T4, CYP3A4 (Homo sapiens, UniProt P08684); test: CYP inhibition assay with human liver microsomes; format: in vitro ADME
T4 construct: using human liver microsomes (pool from various individuals); from tissue; host or cells: human liver microsomes (pool from various individuals)
T4 sequence (P08684 whole entry): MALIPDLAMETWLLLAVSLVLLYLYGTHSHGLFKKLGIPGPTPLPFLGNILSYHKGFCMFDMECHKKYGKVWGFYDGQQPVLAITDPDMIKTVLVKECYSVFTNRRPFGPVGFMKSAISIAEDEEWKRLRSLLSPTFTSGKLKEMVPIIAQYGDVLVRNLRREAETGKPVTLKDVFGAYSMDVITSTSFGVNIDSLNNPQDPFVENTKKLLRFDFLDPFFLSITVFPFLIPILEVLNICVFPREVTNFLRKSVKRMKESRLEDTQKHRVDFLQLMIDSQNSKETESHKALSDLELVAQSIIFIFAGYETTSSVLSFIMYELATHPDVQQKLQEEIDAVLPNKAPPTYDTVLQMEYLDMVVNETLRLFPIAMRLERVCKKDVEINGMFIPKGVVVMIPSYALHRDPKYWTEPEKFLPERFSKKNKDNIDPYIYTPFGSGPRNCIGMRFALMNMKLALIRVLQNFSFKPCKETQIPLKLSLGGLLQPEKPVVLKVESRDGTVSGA
Excerpt: Inhibitory properties of an active ingredient on the cytochromes P450 (CYP) of the human body may entail extensive clinical effects (drug interactions) because most of the prescribed medicaments are degraded (metabolized) by these enzymes. The ones involved in this are in particular the CYP isoenzymes of the 1A and 2C families, CYP2D6 and, with a proportion of almost 50%, CYP3A4. In order to preclude or minimize these possible drug interactions (Drug-Drug Interactions, DDI), the ability of substances to be able to inhibit CYP1A2, CYP2C8, CYP2C9, CYP2D6 and CYP3A4 in humans is investigated using human liver microsomes (pool from various individuals). This takes place by measuring CYP isoform-specific metabolites formed from standard substrates such as, for example, phenacetin, amodiaquin, diclofenac, dextromethorphan, midazolam and testosterone. The inhibitory effects are investigated at six different concentrations of the test compounds (1.5, 3.1, 6.3, 12.5, 25 and 50 μM as maximum concentration or 0.6, 1.3, 2.5, 5, 10 and 20 μM as maximum concentration), comparing with the extent of the CYP isoform-specific metabolite formation of the standard substrates in the absence of the test compounds, and calculating the corresponding IC50 values. CYP isoform-specific standard inhibitors such as, for example, fluvoxamine, quercetin, sulfaphenazole, fluoxetine and ketoconazole serve as control of the results obtained. In order to obtain indications of the possible mechanism-based inhibitors (MBI) on CYP3A4, the human liver microsomes are incubated in the presence of the inhibitor to be investigated for 30 minutes before the addition of midazolam or testosterone as standard substrates of CYP3A4. A reduction in the IC50 obtained by comparison with the mixture without preincubation serves as an indicator of a mechanism-based inhibition. Mibefradil serves as positive control.
The incubations of the standard substrates with human liver microsomes (23-233 μg/mL) in the presence of the test compound (as potential inhibitor) are carried out in 96-well plates in a workstation (Tecan, Genesis, Crailsheim, Germany) at 37° C. The incubation times are 15-20 minutes. The test compounds are preferably dissolved in acetonitrile (1.0 or 2.5 mM stock solution). The 96-well plates are produced by sequential addition of a stock solution of NADP+, EDTA, glucose 6-phosphate and glucose-6-phosphate dehydrogenase in phosphate buffer (pH 7.4), the test compound, and a solution of standard substrate and human liver microsomes in phosphate buffer (pH 7.4). The total volume is 200 μl. The corresponding control incubations with and without standard inhibitor also take place on the 96-well plate. The incubations are stopped after the respective incubation time by adding 100 μl of acetonitrile in which there is a suitable internal standard. Precipitated proteins are removed by centrifugation (3000 rpm, 10 minutes, 10° C.). The resulting supernatants of the respective plates are combined on one plate and analyzed by LC-MS/MS. The […] values are generated from the resulting measured data and used to assess the inhibitory potential of the test compound.

[5] = 30 min preincubation with test compound before substrate, read-out: CYP 3A4 Preincubation, 30 min.
[6] = without preincubation, read-out: CYP 3A4 Coincubation

Row | IC50 [1] [µM] | IC50 [2] [µM] | IC50 [3] [µM] | IC50 [4, 5] [µM] | IC50 [4, 6] [µM] | Compound
1 | 0.03 | 2.23 | 3.2 | 7.8 | > 20 | CC(CCC#N)(c1ccc(Cl)cc1)c1c[nH]c2c(CS(C)(=O)=O)cccc12 (stereo not drawn) [Example 171, 4-(4-Chlorophenyl)-4-{7-[(methylsulfonyl)methyl]-1H-indol-3-yl}-pentanonitrile]
2 | 0.071 | 10 | 3.03 | > 20 | > 20 | CS(=O)(=O)Cc1cccc2c(C(c3c(F)cc(Cl)cc3F)C3CC3)c[nH]c12 (stereo not drawn) [Example 252, 3-[(4-Chloro-2,6-difluorophenyl)(cyclopropyl)methyl]-7-[(methylsulfonyl)methyl]-1H-indole]
3 | 0.15 | 5.51 | – | 14.4 | > 20 | C[S+]([O-])Cc1cccc2c(C3(C4CC4)CCc4cc(F)ccc43)c[nH]c12 (mixture of isomers) [Example 120, 3-(1-Cyclopropyl-5-fluoro-2,3-dihydro-1H-inden-1-yl)-7-[(methylsulfinyl)methyl]-1H-indole]
4 | 0.12 | – | 3.45 | > 20 | > 20 | CS(=O)(=O)Cc1cccc2c(C(c3ccc(C(F)(F)F)cc3Cl)C3CC3)c[nH]c12 (stereo not drawn) [Example 245, 3-{[2-Chloro-4-(trifluoromethyl)phenyl](cyclopropyl)methyl}-7-[(methylsulfonyl)methyl]-1H-indole]
5 | 0.066 | 3.77 | 1.39 | 15.8 | > 20 | CS(=O)(=O)Cc1cccc2c(C(c3ccc(Cl)cc3Cl)C3CC3)c[nH]c12 (stereo not drawn) [Example 242, 3-[Cyclopropyl(2,4-dichlorophenyl)methyl]-7-[(methylsulfonyl)methyl]-1H-indole]
6 | 0.028 | 5.24 | 6.06 | 15 | > 20 | CS(=O)(=O)Cc1cccc2c(C(c3ccc(Cl)cc3)C3CC3(F)F)c[nH]c12 (single isomer, unassigned) [Example 261-2, 3-[(4-Chlorophenyl)(2,2-difluorocyclopropyl)methyl]-7-[(methylsulfonyl)methyl]-1H-indole]
7 | 0.024 | 10 | – | 18.2 | > 20 | CS(=O)(=O)Cc1cccc2c(C(c3ccc(Cl)cc3)C3CC3C#N)c[nH]c12 (stereo not drawn) [Example 276, 2-[(4-Chlorophenyl){7-[(methylsulfonyl)methyl]-1H-indol-3-yl}methyl]cyclopropanecarbonitrile]
8 | 0.069 | 9.73 | 3.45 | 18.3 | > 20 | CS(=O)(=O)Cc1cccc2c(C(c3ccc(Cl)cc3)C3CC3)c[nH]c12 (stereo not drawn) [Example 249, 3-[(4-Chlorophenyl)(cyclopropyl)methyl]-7-[(methylsulfonyl)methyl]-1H-indole]
9 | 0.27 | 10 | 1.6 | 19.4 | > 20 | CS(=O)(=O)Cc1cccc2c(C(c3ccc(F)cc3F)C3CC3)c[nH]c12 (stereo not drawn) [Example 250, 3-[Cyclopropyl(2,4-difluorophenyl)methyl]-7-[(methylsulfonyl)methyl]-1H-indole]
